Test results taken from US20260250260A1, “POLYMORPH OF 7,8-DIHYDROXYFLAVONE, AND PREPARATION METHOD THEREFOR” (HUIANKAI (XIAMEN) PHARMACEUTICAL TECHNOLOGY CO., LTD., priority 2022, published 2026).
Converted amounts (≈) assume the structure as drawn.

Tests used:
Assay type in all cases: physicochemical
[1] = Crystal form conversion of comparative crystal forms on drying, at room temperature or on heating
[2] = Dynamic solubility in biological medium (FaSSIF, FeSSIF, FaSSGF) and water
Experimental: The 20 mg of 7,8-dihydroxyflavones in different crystal forms were weighed out separately and added into 4.0 mL of biological medium or water, and shaken at a constant temperature of 37° C. for 24 h. Samples were taken at 0.5 h, 2 h and 24 h, respectively, and the sampled solutions were filtered through 0.22 μm aquo-system filter membranes. Signal peak areas of the solutions were measured by HPLC, and finally, concentrations of the compounds in the solutions were calculated based on the peak areas, HPLC standard curves of the raw materials, and the dilution times. In addition, the supernatant at 24 h was taken to test pH, and the residual solid was subjected to the XRPD test. [table]

[3] = Dynamic vapor sorption analysis (DVS); settings: range of 0%-95% relative humidity; mass gain relative to initial mass
Experimental: Dynamic vapor sorption and desorption analysis was measured using DVS Intrinsic (SMS, UK). The test was performed in gradient mode with a humidity change of 50%-95%-0%-50%, with a change of 10% per humidity gradient in the range of 0% to 90%. The gradient endpoint was determined by dm/dt; the gradient endpoint lies where the dm/dt was less than 0.002% and maintained for 10 minutes. After the test was completed, the samples were analyzed by XRPD to confirm whether the solid morphology had changed.

[4] = Stability of different 7,8-dihydroxyflavone crystal forms (XRPD characterization); settings: for crystal form stability (general statement): performance embodiment, no conditions stated
Experimental: The stability of different 7,8-dihydroxyflavonoid crystal forms was studied under high temperature (60° C.), high humidity (25° C./92.5% RH), illumination (25° C./4500 Lux), and acceleration (40° C./75% RH) conditions, and samples were taken for XRPD characterization on day 7 and day 15, respectively.

[5] = FaSSGF pH 1.6, residual solid after 24 h at 37° C.
[6] = FaSSGF pH 1.6, supernatant at 24 h
[7] = FaSSIF pH 6.5, residual solid after 24 h at 37° C.
[8] = FaSSIF pH 6.5, supernatant at 24 h
[9] = FeSSIF pH 5.0, residual solid after 24 h at 37° C.
[10] = FeSSIF pH 5.0, supernatant at 24 h
[11] = Water, residual solid after 24 h at 37° C.

O=c1cc(-c2ccccc2)oc2c(O)c(O)ccc12 [crystal form T, 7,8-dihydroxyflavone]
crystal form conversion ([1]; at room temperature): cannot exist at room temperature for a long period

O=c1cc(-c2ccccc2)oc2c(O)c(O)ccc12 [crystal form F, 7,8-dihydroxyflavone]
crystal form conversion ([1]; at room temperature): convert to the crystal form B
crystal form conversion ([1]; heated to 220° C.): convert to mixed crystals of the crystal form J and the crystal form P

O=c1cc(-c2ccccc2)oc2c(O)c(O)ccc12 [Crystal form N, 7,8-dihydroxyflavone]
Solubility 0.5 h ([2]; FaSSGF pH 1.6, 37° C.): 13.6 µg/mL (≈ 53.5 µM)
Solubility 2 h ([2]; FaSSGF pH 1.6, 37° C.): 18.7 µg/mL (≈ 73.6 µM)
Solubility 24 h ([2]; FaSSGF pH 1.6, 37° C.): 16.1 µg/mL (≈ 63.3 µM)
Residual solid XRPD [2, 5]: Crystal form N
Final pH [2, 6]: 1.6
Solubility 0.5 h ([2]; FaSSIF pH 6.5, 37° C.): 35.8 µg/mL (≈ 141 µM)
Solubility 2 h ([2]; FaSSIF pH 6.5, 37° C.): 38.7 µg/mL (≈ 152 µM)
Solubility 24 h ([2]; FaSSIF pH 6.5, 37° C.): 36.5 µg/mL (≈ 144 µM)
Residual solid XRPD [2, 7]: Crystal form N
Final pH [2, 8]: 6.4
Solubility 0.5 h ([2]; FeSSIF pH 5.0, 37° C.): 111.9 µg/mL (≈ 440 µM)
Solubility 2 h ([2]; FeSSIF pH 5.0, 37° C.): 114.2 µg/mL (≈ 449 µM)
Solubility 24 h ([2]; FeSSIF pH 5.0, 37° C.): 107.6 µg/mL (≈ 423 µM)
Residual solid XRPD [2, 9]: Crystal form N
Final pH [2, 10]: 5.0
Solubility 0.5 h ([2]; Water, 37° C.): 15.1 µg/mL (≈ 59.4 µM)
Solubility 2 h ([2]; Water, 37° C.): 11.8 µg/mL (≈ 46.4 µM)
Solubility 24 h ([2]; Water, 37° C.): 3.1 µg/mL (≈ 12.2 µM)
Residual solid XRPD [2, 11]: Crystal form C
Final pH ([2]; Water, supernatant at 24 h): 5.2
weight gain in the dynamic vapor sorption plot [3]: less than 0.1%
Result on day 7 (XRPD) ([4]; High temperature 60° C.): No change
Result on day 15 (XRPD) ([4]; High temperature 60° C.): No change
crystal form stability (general statement) [4]: stable and does not suffer from crystal transformation

O=c1cc(-c2ccccc2)oc2c(O)c(O)ccc12 [crystal form A, 7,8-dihydroxyflavone]
crystal form conversion ([1]; heated to 130° C.): convert to mixed crystals containing the crystal form F
crystal form conversion ([1]; heated to 160° C.): convert to mixed crystals containing the crystal form F and the crystal form J
crystal form conversion ([1]; under sufficient drying): convert to the crystal form N

O=c1cc(-c2ccccc2)oc2c(O)c(O)ccc12 [crystal form Q, 7,8-dihydroxyflavone]
crystal form conversion ([1]; at room temperature): convert to the crystal form C

O=c1cc(-c2ccccc2)oc2c(O)c(O)ccc12 [crystal form M, 7,8-dihydroxyflavone]
crystal form conversion ([1]; at room temperature): convert to the crystal form C

O=c1cc(-c2ccccc2)oc2c(O)c(O)ccc12 [crystal form G, 7,8-dihydroxyflavone]
crystal form conversion ([1]; heated to 140° C.): convert to the crystal form T which has a small amount of crystal form J

O=c1cc(-c2ccccc2)oc2c(O)c(O)ccc12 [crystal form B, 7,8-dihydroxyflavone]
crystal form conversion ([1]; at 180° C.): convert to mixed crystals containing the crystal form F and the crystal form J
crystal form conversion ([1]; at room temperature): tend to convert to the crystal form C
crystal form conversion ([1]; heated to 110° C.): some characteristic peaks of the crystal form J will appear

O=c1cc(-c2ccccc2)oc2c(O)c(O)ccc12 [crystal form O, 7,8-dihydroxyflavone]
crystal form conversion ([1]; at room temperature): convert to the crystal form C

O=c1cc(-c2ccccc2)oc2c(O)c(O)ccc12 [Crystal form C, 7,8-dihydroxyflavone]
Solubility 0.5 h ([2]; FaSSGF pH 1.6, 37° C.): 2.5 µg/mL (≈ 9.83 µM)
Solubility 2 h ([2]; FaSSGF pH 1.6, 37° C.): 2.2 µg/mL (≈ 8.65 µM)
Solubility 24 h ([2]; FaSSGF pH 1.6, 37° C.): 2.4 µg/mL (≈ 9.44 µM)
Residual solid XRPD [2, 5]: Crystal form C
Final pH [2, 6]: 1.6
Solubility 0.5 h ([2]; FaSSIF pH 6.5, 37° C.): 9.0 µg/mL (≈ 35.4 µM)
Solubility 2 h ([2]; FaSSIF pH 6.5, 37° C.): 10.2 µg/mL (≈ 40.1 µM)
Solubility 24 h ([2]; FaSSIF pH 6.5, 37° C.): 9.8 µg/mL (≈ 38.5 µM)
Residual solid XRPD [2, 7]: Crystal form C
Final pH [2, 8]: 6.5
Solubility 0.5 h ([2]; FeSSIF pH 5.0, 37° C.): 33.5 µg/mL (≈ 132 µM)
Solubility 2 h ([2]; FeSSIF pH 5.0, 37° C.): 33.9 µg/mL (≈ 133 µM)
Solubility 24 h ([2]; FeSSIF pH 5.0, 37° C.): 33.2 µg/mL (≈ 131 µM)
Residual solid XRPD [2, 9]: Crystal form C
Final pH [2, 10]: 5.0
Solubility 0.5 h ([2]; Water, 37° C.): 2.6 µg/mL (≈ 10.2 µM)
Solubility 2 h ([2]; Water, 37° C.): 3.1 µg/mL (≈ 12.2 µM)
Solubility 24 h ([2]; Water, 37° C.): 3.3 µg/mL (≈ 13 µM)
Residual solid XRPD [2, 11]: Crystal form C
Final pH ([2]; Water, supernatant at 24 h): 5.5
weight gain in the dynamic vapor sorption plot [3]: less than 0.1%
Result on day 7 (XRPD) ([4]; Acceleration 40° C./75% RH): No change
Result on day 15 (XRPD) ([4]; Acceleration 40° C./75% RH): No change
Result on day 7 (XRPD) ([4]; High humidity 25° C./92.5% RH): No change
Result on day 15 (XRPD) ([4]; High humidity 25° C./92.5% RH): No change
Result on day 7 (XRPD) ([4]; High temperature 60° C.): No change
Result on day 15 (XRPD) ([4]; High temperature 60° C.): No change
Result on day 7 (XRPD) ([4]; Illumination 25° C./4500 Lux): No change
Result on day 15 (XRPD) ([4]; Illumination 25° C./4500 Lux): No change
crystal form stability (general statement) [4]: stable and does not suffer from crystal transformation

O=c1cc(-c2ccccc2)oc2c(O)c(O)ccc12 [crystal form H, 7,8-dihydroxyflavone]
crystal form conversion ([1]; at room temperature): convert to other crystal forms

O=c1cc(-c2ccccc2)oc2c(O)c(O)ccc12 [crystal form S, 7,8-dihydroxyflavone]
crystal form conversion ([1]; at room temperature): convert to the crystal form C

O=c1cc(-c2ccccc2)oc2c(O)c(O)ccc12 [crystal form E, 7,8-dihydroxyflavone]
crystal form conversion ([1]; at room temperature): convert to the crystal form N

O=c1cc(-c2ccccc2)oc2c(O)c(O)ccc12 [crystal form K, 7,8-dihydroxyflavone]
crystal form conversion ([1]; heated to 150° C. and then cooled to room temperature): convert to mixed crystals of the crystal form F and the crystal form J

O=c1cc(-c2ccccc2)oc2c(O)c(O)ccc12 [Crystal form P, 7,8-dihydroxyflavone]
Solubility 0.5 h ([2]; FaSSGF pH 1.6, 37° C.): 8.6 µg/mL (≈ 33.8 µM)
Solubility 2 h ([2]; FaSSGF pH 1.6, 37° C.): 8.6 µg/mL (≈ 33.8 µM)
Solubility 24 h ([2]; FaSSGF pH 1.6, 37° C.): 5.6 µg/mL (≈ 22 µM)
Residual solid XRPD [2, 5]: Crystal form P
Final pH [2, 6]: 1.6
Solubility 0.5 h ([2]; FaSSIF pH 6.5, 37° C.): 24.3 µg/mL (≈ 95.6 µM)
Solubility 2 h ([2]; FaSSIF pH 6.5, 37° C.): 25.9 µg/mL (≈ 102 µM)
Solubility 24 h ([2]; FaSSIF pH 6.5, 37° C.): 20.5 µg/mL (≈ 80.6 µM)
Residual solid XRPD [2, 7]: Crystal form P
Final pH [2, 8]: 6.4
Solubility 0.5 h ([2]; FeSSIF pH 5.0, 37° C.): 74.5 µg/mL (≈ 293 µM)
Solubility 2 h ([2]; FeSSIF pH 5.0, 37° C.): 74.3 µg/mL (≈ 292 µM)
Solubility 24 h ([2]; FeSSIF pH 5.0, 37° C.): 71.2 µg/mL (≈ 280 µM)
Residual solid XRPD [2, 9]: Crystal form P
Final pH [2, 10]: 5.0
Solubility 0.5 h ([2]; Water, 37° C.): 11.2 µg/mL (≈ 44.1 µM)
Solubility 2 h ([2]; Water, 37° C.): 10.6 µg/mL (≈ 41.7 µM)
Solubility 24 h ([2]; Water, 37° C.): 10.6 µg/mL (≈ 41.7 µM)
Residual solid XRPD [2, 11]: Crystal form P
Final pH ([2]; Water, supernatant at 24 h): 4.6
weight gain in the dynamic vapor sorption plot [3]: less than 0.1%
Result on day 7 (XRPD) ([4]; Acceleration 40° C./75% RH): No change
Result on day 15 (XRPD) ([4]; Acceleration 40° C./75% RH): No change
Result on day 7 (XRPD) ([4]; High humidity 25° C./92.5% RH): No change
Result on day 15 (XRPD) ([4]; High humidity 25° C./92.5% RH): No change
Result on day 7 (XRPD) ([4]; High temperature 60° C.): No change
Result on day 15 (XRPD) ([4]; High temperature 60° C.): No change
Result on day 7 (XRPD) ([4]; Illumination 25° C./4500 Lux): No change
Result on day 15 (XRPD) ([4]; Illumination 25° C./4500 Lux): No change
crystal form stability (general statement) [4]: stable and does not suffer from crystal transformation

O=c1cc(-c2ccccc2)oc2c(O)c(O)ccc12 [crystal form R, 7,8-dihydroxyflavone]
crystal form conversion ([1]; at room temperature): cannot exist at room temperature for a long period
